Results reported in ChEMBL document CHEMBL4000146, “Synthesis, antiplasmodial activity and mechanistic studies of pyrimidine-5-carbonitrile and quinoline hybrids” (Eur J Med Chem, 2015).

Tests used:
[1] = Selectivity index, ratio of IC50 for human HeLa cells to IC50 for chloroquine-sensitive asexual intraerythrocytic stage of Plasmodium falciparum NF54; type: toxicity, cell-based; details: read-out: Ratio IC50
[2] = system: Mammalian orthoreovirus 1; type: functional; details: Mammalian orthoreovirus 1, Vero
[3] = Cytotoxicity against african green monkey Vero cells assessed as alteration of normal cell morphology by microscopic analysis; type: cell-based; details: chlorocebus sabaeus
[4] = system: Human alphaherpesvirus 2; type: functional, cell-based; details: Human alphaherpesvirus 2, G, HEL
[5] = system: unidentified adenovirus; type: functional, cell-based; details: HEL
[6] = system: Human betaherpesvirus 5; type: functional, cell-based; details: Human betaherpesvirus 5, AD169, HEL
[7] = system: Influenza A virus; assay: microbe, parasite or virus in culture; details: H1N1, MDCK
[8] = system: Plasmodium falciparum; assay: Resistance index, ratio of IC50 for chloroquine-resistant asexual intraerythrocytic stage of Plasmodium falciparum Dd2 to IC50 for chloroquine-sensitive asexual intraerythrocytic stage of Plasmodium falciparum NF54; type: functional
[9] = system: Punta Toro virus; type: functional; details: Vero
[10] = system: Plasmodium falciparum; assay: microbe, parasite or virus in culture; details: Dd2
[11] = system: Coxsackievirus; type: functional; details: B4, Vero
[12] = system: Vesicular stomatitis virus; assay: microbe, parasite or virus in culture; details: HeLa
[13] = system: Human betaherpesvirus 5; type: functional, cell-based; details: Human betaherpesvirus 5, Davis, HEL
[14] = system: Human alphaherpesvirus 3; type: functional, cell-based; details: Human alphaherpesvirus 3, strain Oka vaccine, HEL
[15] = Cytotoxicity against human HEL cells assessed as alteration of normal cell morphology by microscopic analysis; type: cell-based
[16] = Cytotoxicity against MDCK cells assessed as alteration of normal cell morphology by microscopic analysis; type: cell-based, Canis lupus familiaris; details: dog
[17] = system: Human respirovirus 3; type: functional; details: Human respirovirus 3, Vero
[18] = system: Human alphaherpesvirus 1; type: functional, cell-based; details: Human alphaherpesvirus 1, KOS, HEL
[19] = system: HeLa; assay: Cytotoxicity against human HeLa cells assessed as inhibition of cell proliferation by Coulter counter analysis; type: cell-based
[20] = system: Influenza B virus; assay: microbe, parasite or virus in culture; details: MDCK
[21] = system: Influenza A virus; assay: microbe, parasite or virus in culture; details: H3N2, MDCK
[22] = system: Plasmodium falciparum; assay: microbe, parasite or virus in culture; details: NF54
[23] = system: Vesicular stomatitis virus; assay: microbe, parasite or virus in culture; details: HEL
[24] = system: Human alphaherpesvirus 1; type: functional, cell-based; details: Human alphaherpesvirus 1, KOS, HEL; remark: listed apart in the source
[25] = system: Coxsackievirus; type: functional, cell-based; details: B4, HeLa
[26] = system: Vaccinia virus; assay: microbe, parasite or virus in culture; details: Orthopoxvirus vaccinia, HEL
[27] = system: Sindbis virus; type: functional; details: Vero
[28] = system: L1210; assay: Cytotoxicity against mouse L1210 cells assessed as inhibition of cell proliferation by Coulter counter analysis; type: cell-based
[29] = Cytotoxicity against MDCK cells assessed as inhibition of cell viability by colorimetric formazan-based MTS assay; set-up: species or system Canis lupus familiaris; details: dog
[30] = Selectivity index, ratio of IC50 for human HeLa cells to IC50 for chloroquine-resistant asexual intraerythrocytic stage of Plasmodium falciparum Dd2; type: toxicity, cell-based; details: read-out: Ratio IC50
[31] = Cytotoxicity against human HeLa cells assessed as alteration of normal cell morphology by microscopic analysis; type: cell-based
[32] = system: Human alphaherpesvirus 3; type: functional, cell-based; details: Human alphaherpesvirus 3, 07-1, HEL
[33] = Cytotoxicity against human HEL cells assessed as inhibition of cell viability by colorimetric formazan-based MTS assay
[34] = system: Human orthopneumovirus; type: functional, cell-based; details: human respiratory syncytial virus, HeLa
[35] = system: CCRF-CEM; assay: Cytotoxicity against human CEM cells assessed as inhibition of cell proliferation by Coulter counter analysis; type: cell-based

SMILES	EC50 [2]	MCC [3]	EC50 [4]	EC50 [6]	EC50 [7]	EC50 [11]	EC50 [13]	EC50 [14]	MCC [15]	EC50 [18]	EC50 [20]	EC50 [21]	EC50 [23]	EC50 [24]	EC50 [26]	EC50 [27]	CC50 [29]	MCC [31]	EC50 [32]	EC50 [34]	other results
CSc1nc(NCCCCNc2ccnc3cc(Cl)ccc23)c(C#N)c(-c2ccccc2)n1	> 4 µM	20 µM	> 0.8 µM	> 4 µM	> 4 µM	> 4 µM	> 4 µM	> 4 µM	4 to 20 µM	> 0.8 µM	> 4 µM	> 4 µM	> 0.8 µM	> 0.8 µM	> 0.8 µM	> 4 µM	10.7 µM	100 µM	> 4 µM	> 20 µM	selectivity ratio [1]: 78.3; EC50 [5]: > 4 µM; Ratio IC50 [8]: 2.71; EC50 [9]: > 4 µM; IC50 [10]: 0.295 µM; EC50 [12]: > 20 µM; MCC [16]: 20 µM; EC50 [17]: > 4 µM; IC50 [19]: 8.5 µM; IC50 [22]: 0.109 µM; EC50 [25]: > 20 µM; IC50 [28]: 4.4 µM; selectivity ratio [30]: 28.7; CC50 [33]: 8.2 µM; IC50 [35]: 5.2 µM
N#Cc1c(NCCCCNc2ccnc3cc(Cl)ccc23)nc(N2CCOCC2)nc1-c1ccccc1	> 4 µM	20 µM	> 4 µM	> 4 µM	> 4 µM	> 4 µM	> 4 µM	> 4 µM	20 µM	> 4 µM	> 4 µM	> 4 µM	> 4 µM	> 4 µM	> 4 µM	> 4 µM	10.9 µM	20 µM	> 4 µM	> 4 µM	selectivity ratio [1]: 86.3; EC50 [5]: > 4 µM; Ratio IC50 [8]: 1.95; EC50 [9]: > 4 µM; IC50 [10]: 0.386 µM; EC50 [12]: > 4 µM; MCC [16]: 20 µM; EC50 [17]: > 4 µM; IC50 [19]: 17 µM; IC50 [22]: 0.198 µM; EC50 [25]: > 4 µM; IC50 [28]: 4.2 µM; selectivity ratio [30]: 44; CC50 [33]: 11.9 µM; IC50 [35]: 4.6 µM
CSc1nc(NCCCNc2ccnc3cc(Cl)ccc23)c(C#N)c(-c2ccccc2)n1	> 20 µM	100 µM	> 4 µM	> 4 µM	> 4 µM	> 20 µM	> 4 µM	> 4 µM	20 µM	> 4 µM	> 4 µM	> 4 µM	> 4 µM	> 4 µM	> 4 µM	> 20 µM	10.3 µM	100 µM	> 4 µM	> 20 µM	selectivity ratio [1]: 82.3; EC50 [5]: > 20 µM; Ratio IC50 [8]: 2.38; EC50 [9]: > 20 µM; IC50 [10]: 0.319 µM; EC50 [12]: > 20 µM; MCC [16]: 20 µM; EC50 [17]: > 20 µM; IC50 [19]: 11 µM; IC50 [22]: 0.134 µM; EC50 [25]: > 20 µM; IC50 [28]: 4.7 µM; selectivity ratio [30]: 34.4; CC50 [33]: 43.4 µM; IC50 [35]: 4.7 µM
Nc1nc2c(ncn2COCCO)c(=O)[nH]1 [ACYCLOVIR]	–	–	0.1 µM	1.24 µM	–	–	0.51 µM	1.69 µM	250 to 400 µM	10 µM	–	–	> 250 µM	0.2 µM	> 250 µM	–	–	–	49.3 µM	–	–
COc1ccc(-c2nc(SC)nc(NCCCCNc3ccnc4cc(Cl)ccc34)c2C#N)cc1OC	> 100 µM	> 100 µM	> 100 µM	> 20 µM	> 4 µM	> 100 µM	> 20 µM	> 20 µM	≥ 100 µM	> 100 µM	> 4 µM	> 4 µM	> 100 µM	> 100 µM	> 100 µM	> 100 µM	10 µM	100 µM	> 20 µM	> 20 µM	selectivity ratio [1]: 104; EC50 [5]: > 20 µM; Ratio IC50 [8]: 6.65; EC50 [9]: > 100 µM; IC50 [10]: 1.28 µM; EC50 [12]: > 20 µM; MCC [16]: 20 µM; EC50 [17]: > 100 µM; IC50 [19]: 20 µM; IC50 [22]: 0.193 µM; EC50 [25]: > 20 µM; IC50 [28]: 18 µM; selectivity ratio [30]: 15.5; CC50 [33]: 84.1 µM; IC50 [35]: 16 µM
COc1ccc(-c2nc(SC)nc(NCCCCNc3ccnc4cc(Cl)ccc34)c2C#N)cc1	> 4 µM	20 µM	> 0.8 µM	> 4 µM	> 4 µM	> 4 µM	> 4 µM	> 4 µM	4 to 20 µM	> 0.8 µM	> 4 µM	> 4 µM	> 0.8 µM	> 0.8 µM	> 0.8 µM	> 4 µM	10 µM	20 µM	> 4 µM	> 4 µM	selectivity ratio [1]: 30.9; EC50 [5]: > 4 µM; Ratio IC50 [8]: 13.92; EC50 [9]: > 4 µM; IC50 [10]: 1.53 µM; EC50 [12]: > 4 µM; MCC [16]: 20 µM; EC50 [17]: > 4 µM; IC50 [19]: 3.4 µM; IC50 [22]: 0.11 µM; EC50 [25]: > 4 µM; IC50 [28]: 3.2 µM; selectivity ratio [30]: 2.2; CC50 [33]: 7.9 µM; IC50 [35]: 2.7 µM
C[C@H]1[C@H](OC(=O)CCC(=O)O)O[C@@H]2O[C@@]3(C)CC[C@H]4[C@H](C)CC[C@@H]1[C@@]24OO3 [ARTESUNATE]	–	–	–	–	–	–	–	–	–	–	–	–	–	–	–	–	–	–	–	–	Ratio IC50 [8]: 1.38; IC50 [10]: 0.0174 µM; IC50 [22]: 0.0126 µM
NC(=O)c1ncn([C@@H]2O[C@H](CO)[C@@H](O)[C@H]2O)n1 [RIBAVIRIN]	> 250 µM	> 250 µM	–	–	7.2 to 9 µM	250 µM	–	–	–	–	4 to 4.5 µM	6.9 to 9 µM	–	–	–	> 250 µM	100 µM	> 250 µM	–	10 µM	–
CCN(CC)CCCC(C)Nc1ccnc2cc(Cl)ccc12 (stereo not drawn) [CHLOROQUINE]	> 100 µM	> 100 µM	> 20 µM	> 20 µM	> 20 µM	> 100 µM	> 4 µM	> 4 µM	≥ 20 µM	> 20 µM	> 20 µM	> 20 µM	> 20 µM	> 20 µM	> 20 µM	> 100 µM	55.6 µM	> 100 µM	> 4 µM	> 100 µM	EC50 [5]: > 20 µM; EC50 [9]: > 100 µM; EC50 [12]: > 100 µM; MCC [16]: 100 µM; EC50 [17]: > 100 µM; IC50 [19]: 18 µM; EC50 [25]: > 100 µM; IC50 [28]: 15 µM; CC50 [33]: 58.5 µM; IC50 [35]: 23 µM
